Results on 19 compounds are retold here after patent US11559538B2, “Substituted 1,2-oxaborolan-2-ols as PDE4 inhibitors” (Pfizer Inc., priority 2018, dated 2023).

Read-outs that look alike come from different tables or passages of the source.

One assay relates to IFNγ. Put plainly: Cytokine assay: IFNγ release from PHA-L stimulated human PBMCs. In kind it is cell-based. As to the method: (§1) Cytokine inhibitory activity is determined by measuring the effect of test agent on the release of the cytokines IL-4, IL-13 and IFNγ from human peripheral blood mononuclear cells (PBMCs) stimulated with the T-cell mitogen phytohemagglutinin-L (PHA-L). At the time of assay, human PBMCs (Astarte Biologics) are removed from cryopreservation, thawed quickly at 37° C., diluted in assay medium (RPMI-Gibco 1640 medium, 10% heat inactivated fetal bovine serum (HIFBS), 2 mM glutamine and 10 mM HEPES pH 7.4) and then centrifuged at 250×g for 5 minutes. The resulting cell pellet is re-suspended in assay medium to a concentration of approximately 5×10^6 cells/mL and 50 μL of this cell suspension (approximately 250,000 cells) is added to each well of a 384-well cell culture microtiter plate (Perkin Elmer). Varying concentrations of test compound are then diluted in assay medium and added to the assay plate wells in a volume of 25 μL. After −10 minutes at room temperature (21° C.) the cells are stimulated by the addition of 25 μL of PHA-L (14 μg/mL; Millipore) and the assay plate is placed in an incubator at 37° C. in a humidified environment in 5% carbon dioxide. The final assay conditions are approximately 250,000 human PBMCs per well in assay medium containing 3.5 μg/mL PHA-L and the indicated final concentration of test compound (approximately 10 μM to […] by 4-fold dilution). The final concentration of DMSO in the assay is approximately 0.25%. After 48 hours, the assay plate is removed from the incubator and centrifuged at 250×g for 5 minutes. A portion of the resulting cell supernatant is then used to determine the amount of IL-4, IL-13 and IFNγ in each well. Cytokine measurements are made using human IL-4, IL-13 or IFNγ HTRF assay kits (CisBio) following the manufacturer's assay protocol. The concentrations and resulting effect values for tested compounds are plotted and the concentration of compound required for 50% effect (IC50) is determined with a four-parameter logistic dose response equation (E-WorkBook, ID Business Solutions Ltd.) and shown in Table 17.

The subject of another assay is IL-13. Put plainly: Cytokine assay: IL-13 release from PHA-L stimulated human PBMCs. To be noted: read-out: IL13 IC50. In kind it is cell-based. As to the method: as §1
Assay [1] concerns the target PDE4B (aa 152-484, Uniprot ID Q07343) (Homo sapiens (Human), UniProt Q07343). Put plainly: PDE4 SPA assay (scintillation proximity assay). In kind it is biochemical. To be noted: read-out: PDE4B2 IC50. As to the method:
Phosphodiesterase (PDE) activity is determined by measuring the effect of a test agent on the activity of the PDE4B enzyme in a scintillation proximity assay (SPA). At the time of assay, approximately 30 μL of PDE4B (aa 152-484, Uniprot ID Q07343) in 50 mM Tris pH 7.5, 1.3 mM MgC2, 0.004% Brij 35 is added to a 384 well white clear bottom polystyrene plate (Corning) containing 1 μL of varying concentrations of test compound. After −10 minutes at room temperature (RT; 21° C.), the assay is initiated by the addition of 20 μL of a mixture of ^3H-labeled (adenosine 3′, 5′-cyclic phosphate, ammonium salt, [2,8-^3H]; Perkin Elmer) and unlabeled cAMP. The final assay conditions are approximately 81.6 pM PDE4B in 50 mM Tris pH 7.5, 1.3 mM MgCl2, 0.004% Brij 35, 1 μM ^3H-labeled/unlabeled cAMP (1425 dpm/pmol) and the indicated final concentration of test compound (approximately 10 μM to […] by 4-fold dilution). The final concentration of DMSO in the assay is approximately 2.0%. After 30 minutes at RT, the assay is terminated by the addition of approximately 20 μL of an aqueous solution of PDE YSI SPA beads (8 mg/mL in water; Perkin Elmer). The beads are allowed to settle for at least 2 hours and the plate is then counted on a MicroBeta2 (Perkin Elmer). The concentrations and resulting effect values for the tested compound are plotted and the concentration of compound required for 50% effect (IC50) is determined with a four-parameter logistic dose response equation (E-WorkBook, ID Business Solutions Ltd.) and shown in Table 17.

The next assay relates to IL-4. The assay is described as follows: Cytokine assay: IL-4 release from PHA-L stimulated human PBMCs. It is filed as cell-based. The conditions noted are these: read-out: IL4 IC50. As to the method:
as §1

Chain of PDE4B (aa 152-484, Uniprot ID Q07343) (Q07343 324-656): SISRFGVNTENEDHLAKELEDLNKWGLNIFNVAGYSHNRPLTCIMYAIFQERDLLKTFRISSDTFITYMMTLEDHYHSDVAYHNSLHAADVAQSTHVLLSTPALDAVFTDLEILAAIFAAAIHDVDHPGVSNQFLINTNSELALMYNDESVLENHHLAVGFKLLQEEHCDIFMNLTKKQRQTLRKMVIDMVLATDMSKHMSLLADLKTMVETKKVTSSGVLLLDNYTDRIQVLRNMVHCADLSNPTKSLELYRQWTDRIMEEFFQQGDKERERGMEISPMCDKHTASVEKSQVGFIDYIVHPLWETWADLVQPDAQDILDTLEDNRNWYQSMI

In the case of `CCCOc1nc(-c2cncc(C3COB(O)C3)c2)ccc1OC` (single isomer, unassigned) [Example 61, 4-(5-methoxy-6-propoxy-[2,3′-bipyridin]-5′-yl)-1,2-oxaborolan-2-ol], the half-maximal inhibitory concentration (IC50) in the assay on IFNγ (Homo sapiens, PBMC) is 2.12 nM; in the assay with IL-13, 499 nM; in assay [1], 0.53 nM; with IL-4 it was 0.73 nM.

Turning to `CCCOc1nc(-c2cncc(C3COB(O)C3)c2)ccc1OC` (single isomer, unassigned) [Example 62, 4-(5-methoxy-6-propoxy-[2,3′-bipyridin]-5′-yl)-1,2-oxaborolan-2-ol], the IC50 with IFNγ is 1.44 nM; with IL-13 it was 2570 nM; in assay [1] it was 0.28 nM; in the assay with IL-4, 2.66 nM.

As for `COc1ccc(-c2cccc(C3COB(O)C3)n2)cc1OC1CCCC1` (single isomer, unassigned) [Example 66, 4-(6-(3-(cyclopentyloxy)-4-methoxyphenyl)pyridin-2-yl)-1,2-oxaborolan-2-ol], the half-inhibitory concentration (IC50) in the assay on IFNγ stood at 0.71 nM; with IL-13, 327 nM; in assay [1] it was 2.15 nM; in the assay with IL-4 (Homo sapiens, PBMC), 86.5 nM.

`COc1ccc(-c2cccc(C3COB(O)C3)n2)cc1OC1CCCC1` (single isomer, unassigned) [Example 67, 4-(6-(3-(cyclopentyloxy)-4-methoxyphenyl)pyridin-2-yl)-1,2-oxaborolan-2-ol]: the IC50 is 12.6 nM in the assay on IFNγ, 759 nM in the assay on IL-13, 4.02 nM in assay [1] and 99.9 nM with IL-4.

`CCOc1c(OC)ccc(-c2cncc(C3COB(O)C3)c2)c1F` (single isomer, unassigned) [Example 74, 4-(5-(3-ethoxy-2-fluoro-4-methoxyphenyl)pyridin-3-yl)-1,2-oxaborolan-2-ol]: the IC50 with IFNγ (Homo sapiens, PBMC) was determined as 2.71 nM; in the assay on IL-13 (Homo sapiens, PBMC) it was 768 nM; in assay [1], 3.04 nM; in the assay on IL-4 (Homo sapiens, PBMC), 10.9 nM.

Turning to `CCCOc1cc(-c2cncc(C3COB(O)C3)c2C)ccc1OC` (single isomer, unassigned) [Example 85, 4-(5-(4-methoxy-3-propoxyphenyl)-4-methylpyridin-3-yl)-1,2-oxaborolan-2-ol], the IC50 worked out at 0.56 nM with IFNγ (Homo sapiens, PBMC); 541 nM in the assay with IL-13 (Homo sapiens, PBMC); 0.29 nM in assay [1]; 0.9 nM with IL-4 (Homo sapiens, PBMC).

For the compound `CCCOc1c(OC)ccc(-c2cccc(C3COB(O)C3)n2)c1C#N` (single isomer, unassigned) [Example 87, 6-(6-(2-hydroxy-1,2-oxaborolan-4-yl)pyridin-2-yl)-3-methoxy-2-propoxybenzonitrile], the IC50 was determined as 3.02 nM with IFNγ (Homo sapiens, PBMC); 444 nM in the assay on IL-13 (Homo sapiens, PBMC); 5.03 nM in assay [1]; 19.1 nM in the assay on IL-4 (Homo sapiens, PBMC).

On to `CCCOc1cc(-c2cccc(C3COB(O)C3)c2)ccc1OC` (single isomer, unassigned) [Example 89, 4-(4′-methoxy-3′-propoxy-[1,1′-biphenyl]-3-yl)-1,2-oxaborolan-2-ol], for which the IC50 with IFNγ was 3.5 nM; with IL-13, 449 nM; in assay [1] it was 1.21 nM; in the assay with IL-4, 26.4 nM.

For `CCCOc1cc(-c2cccc(C3COB(O)C3)c2)ccc1OC` (single isomer, unassigned) [Example 90, 4-(4′-methoxy-3′-propoxy-[1,1′-biphenyl]-3-yl)-1,2-oxaborolan-2-ol], the half-maximal inhibitory concentration (IC50) in the assay on IFNγ stood at 13.7 nM; with IL-13, 2790 nM; in assay [1] it was 4.33 nM; with IL-4, 290 nM.

In the case of `CCOc1cc(-c2nc(C3COB(O)C3)cs2)c(F)cc1OC` (single isomer, unassigned) [Example 92, 4-(2-(5-ethoxy-2-fluoro-4-methoxyphenyl)thiazol-4-yl)-1,2-oxaborolan-2-ol], the IC50 is 2.7 nM with IFNγ (Homo sapiens, PBMC); 947 nM in the assay with IL-13 (Homo sapiens, PBMC); 1.79 nM in assay [1]; 3.36 nM with IL-4 (Homo sapiens, PBMC).

`CCOc1c(OC)ccc(-c2cncc(C3COB(O)C3)c2)c1C(F)(F)F` (single isomer, unassigned) [Example 95, 4-(5-(3-ethoxy-4-methoxy-2-(trifluoromethyl)phenyl)pyridin-3-yl)-1,2-oxaborolan-2-ol]: the concentration for half-maximal inhibition (IC50) worked out at 2.87 nM in the assay with IFNγ (Homo sapiens, PBMC); 461 nM in the assay with IL-13 (Homo sapiens, PBMC); 4.87 nM in assay [1]; 7.36 nM with IL-4 (Homo sapiens, PBMC).

For `CCOc1ccc(-c2cncc(C3COB(O)C3)c2)cc1OCC` (single isomer, unassigned) [Example 98, 4-(5-(3,4-diethoxyphenyl)pyridin-3-yl)-1,2-oxaborolan-2-ol], the IC50 in the assay with IFNγ was 2.67 nM; in the assay on IL-13 it was 2800 nM; in assay [1], 1.13 nM; in the assay on IL-4, 219 nM.

For `CCCOc1cc(-c2cncc(C3COB(O)C3)c2)ccc1OCC` (single isomer, unassigned) [Example 105, 4-(5-(4-ethoxy-3-propoxyphenyl)pyridin-3-yl)-1,2-oxaborolan-2-ol], the concentration for half-maximal inhibition (IC50) in the assay on IFNγ (Homo sapiens, PBMC) worked out at 5.46 nM; in the assay on IL-13 it was 490 nM; in assay [1], 3.2 nM; in the assay on IL-4 (Homo sapiens, PBMC) it was 14.2 nM.

With `CCCOc1cc(-c2cncc(C3COB(O)C3)c2)ccc1OCC` (single isomer, unassigned) [Example 106, 4-(5-(4-ethoxy-3-propoxyphenyl)pyridin-3-yl)-1,2-oxaborolan-2-ol], the half-maximal inhibitory concentration (IC50) in the assay with IFNγ worked out at 3.42 nM; with IL-13, 2080 nM; in assay [1], 1.83 nM; in the assay on IL-4 it was 16.1 nM.

Consider `CCCOc1cc(-c2cncc(C3COB(O)C3)c2)c(F)cc1OC` (single isomer, unassigned) [Example 111, 4-(5-(2-fluoro-4-methoxy-5-propoxyphenyl)pyridin-3-yl)-1,2-oxaborolan-2-ol], for which the 50% inhibitory concentration (IC50) with IFNγ (Homo sapiens, PBMC) was 2.95 nM; in the assay on IL-13 (Homo sapiens, PBMC), 496 nM; in assay [1], 0.97 nM; in the assay on IL-4 (Homo sapiens, PBMC), 3.01 nM.

For `CCOc1cc(-c2cncc(C3COB(O)C3)c2)cc(C#N)c1OC` (single isomer, unassigned) [Example 119, 3-ethoxy-5-(5-(2-hydroxy-1,2-oxaborolan-4-yl)pyridin-3-yl)-2-methoxybenzonitrile], the IC50 in the assay on IFNγ (Homo sapiens, PBMC) was found to be 7.34 nM; in the assay on IL-13 (Homo sapiens, PBMC), 1190 nM; in assay [1], 0.72 nM; in the assay on IL-4 (Homo sapiens, PBMC), 5.74 nM.

As for `COc1cnc(-c2cccc(C3COB(O)C3)c2)nc1OC` (single isomer, unassigned) [Example 123, 4-(3-(4,5-dimethoxypyrimidin-2-yl)phenyl)-1,2-oxaborolan-2-ol], the IC50 in the assay on IFNγ (Homo sapiens, PBMC) came to 3.58 nM; in the assay on IL-13 (Homo sapiens, PBMC), 1640 nM; in assay [1], 3.11 nM; in the assay with IL-4 (Homo sapiens, PBMC), 34.1 nM.

With `COc1ccc(-c2cncc(C3COB(O)C3)n2)cc1OC1CCCC1` (single isomer, unassigned) [Example 126, 4-(6-(3-(cyclopentyloxy)-4-methoxyphenyl)pyrazin-2-yl)-1,2-oxaborolan-2-ol], the 50% inhibitory concentration (IC50) in the assay on IFNγ (Homo sapiens, PBMC) is 0.79 nM; with IL-13 (Homo sapiens, PBMC), 680 nM; in assay [1], 0.85 nM; in the assay with IL-4 (Homo sapiens, PBMC), 7.21 nM.

On to `CCCOc1cc(-c2cccc(C3COB(O)C3)n2)ccc1OC` (single isomer, unassigned) [Example 128, 4-(6-(4-methoxy-3-propoxyphenyl)pyridin-2-yl)-1,2-oxaborolan-2-ol], for which the IC50 in the assay with IFNγ (Homo sapiens, PBMC) was 2.25 nM; in the assay on IL-13 (Homo sapiens, PBMC), 667 nM; in assay [1] it was 5.74 nM; with IL-4 (Homo sapiens, PBMC), 53.1 nM.
